Measured values from patent US20260021186A1, “Fatty Acid-D-Amino Acid Peptides Conjugates as Anaplerotic Compounds for Use in Treating Propionic Acidemia, Methylmalonic Acidurias, and Energy Metabolic Disorders” (University of Pittsburgh - Of the Commonwealth System of …, priority 2022, published 2026).

Key:
[1] = test system: Fb859 propionic acidemia patient fibroblasts; assay: Lysine succinylation of cellular proteins by immunofluorescence confocal microscopy; format: cell-based, human; details: media without glucose; for lysine succinylation (green) signal: FIGS. 8A-8F, 30 μM and 90 μM, pyruvate, glutamine, stripped FBS; for lysine succinylation (green staining) compared to untreated cells: FIG. 7, 90 μM, 72 hours, glutamine or pyruvate, lipid stripped FBS
Method: FIG. 7 are immunocytochemistry photomicrographs showing the effect of incubation of Fb859 propionic acidemia patient fibroblasts on for lysine succinylation with 90 μM of PMA010, 90 μM of PMA011, 90 μM of succinic acid, 90 μM of methylmalonic acid, or 90 μM adipic acid for 72 hours. Immunocytochemistry of the fibroblast cells were stained for anti-succinyllysine antibody, anti-MTCO1 antibody and DAPI for nuclei. Instrument: Zeiss LSM 710 confocal Microscopy. Magnification: 40×. The cells were grown in glass coverslips at a seeding density of 3-5×10^4 cells. The media for untreated and treatment groups had no glucose, glutamine or pyruvate, and lipid stripped FBS was included instead of regular FBS. Scale bar=20 μm.
FIGS. 8A-8F are a comparison of lysine succinylation of cellular proteins visualized by immunofluorescence confocal microscopy in a Propionic Acidemia (Fb859) patient untreated (FIG. 8A) and treated with 30 μM and 90 μM of D-Serine (FIG. 8B), 30 µM and 90 μM of PMA007 (FIG. 8C), or 30 μM and 90 μM of PMA010 (FIG. 8D). Scale bar=20 μm. FIG. 8E is a bar graph showing the quantification of the percent change in lysine succinylation (green) signal, from the immunofluorescence confocal micrographs of FIGS. 8B and 8C, in response to the treatment of D-serine and PMA007. FIG. 8F is a bar graph showing the quantification of the percent change in lysine succinylation (green) signal, from the immunofluorescence confocal micrographs of a D-Serine repeat experiment and FIG. 8D, in response to the treatment of D-serine and PMA010. Asterisks indicate statistical significance calculated at the raw data level (n=3); **P<0.01, ***P<0.001, ****P<0.0001 statistically compared to untreated. Statistical analysis used T-test.
Immunohistochemistry: Patient cells were grown in glass coverslips at a seeding density of 3-5×10^4 cells. The media for untreated and treatment groups had no glucose, glutamine or pyruvate, and lipid stripped FBS was included instead of regular FBS. NIH Image J software was used to quantify the fluorescence intensity from 50-60 cells per group. Immunocytochemistry of propionic acidemia patient (Fb859) fibroblast cells lines stained for anti-succinyllysine (Green), anti-MTCO1 (Red), or anti-TOMM20 antibodies, and DAPI (Blue) for nuclei. Instrument: Zeiss LSM 710 confocal Microscopy. Statistical analysis used Tukey multiple range test. ****P<0.0001, [PMA010] (90 μM) treatment group statistically compared to control cells grown in the presence of regular complete DMEM media, untreated and [PMA010] (30 μM) cells grown in the absence of glucose/pyruvate/L-glutamine.

[2] = test system: rat liver mitochondrial; details: in vitro; cited from earlier work
[3] = test system: HEK293 PCCA−/− cells; assay: Lysine succinylation of cellular proteins by immunofluorescence confocal microscopy; format: cell-based, human; details: FIGS. 9C, 9D; 30 μM and 90 μM; media without glucose, pyruvate, and glutamine
Method: FIGS. 9A-9F are a comparison of lysine succinylation of cellular proteins visualized by immunofluorescence confocal microscopy in human HEK293 control and HEK293 PCCA^−/− cells untreated (FIGS. 9A and 9B) and treated with 30 μM and 90 μM of PMA007 (FIG. 9C) or 30 μM and 90 μM of PMA010 (FIG. 9D). The cells in FIGS. 9B, 9C, and 9D were grown in media without glucose, pyruvate, and glutamine. Scale bar=20 μm. FIG. 9E is a bar graph showing the quantification of the percent change in lysine succinylation (green) signal, from the immunofluorescence confocal micrographs of FIGS. 9B and 9C, in response to the treatment of PMA007. FIG. 9F is a bar graph showing the quantification of the percent change in lysine succinylation (green) signal, from the immunofluorescence confocal micrographs of FIGS. 9B and 9D, in response to the treatment of PMA010. Asterisks indicate statistical significance calculated at the raw data level (n=3); **P<0.01. ****P<0.0001 statistically compared to untreated. Statistical analysis used T-test.
FIGS. 9A-9F are a comparison of lysine succinylation of cellular proteins visualized by immunofluorescence confocal microscopy in human HEK293 control and in untreated and treated HEK293 PCCA^−/− knock out cells. […] The PMA007 treatment data in the bar graph of FIG. 9E are the quantitation of the images of FIG. 9C compared to untreated control in FIG. 9B. […]

[4] = test system: PA patient cells, Fb859; assay: Measurement of mitochondrial respiration (Seahorse XF MitoStress test, OCR); format: cell-based, human; details: FIGS. 12A-12D; 30 μM and 90 μM for 72 h
Method: Measurement of Mitochondrial Respiration Seahorse: Fb859 cells were grown in regular DMEM media until 85-90% confluency. The cells were harvested and seeded at a concentration of 25,000 cells/80 μl (n=8 replicates) in poly-D lysine coated XFe seahorse 96well plate in regular DMEM media and incubated overnight at 37° C. in a 5% CO2 incubator. Following day, the culture media was replaced in designated wells with the following for 72 h:180 μl of Specialty Media A (seahorse XFDMEM base media+10% fat stripped FBS+Glucose+sodium pyruvate+L-glutamine+0.5 mM carnitine). 180 μl of Specialty Media B (scahorse XFDMEM base media+10% stripped FBS+0.5 mM carnitine and no added glucose, sodium pyruvate or glutamine). 180 μl of Specialty media B containing experimental compounds. After 72 h incubation the Specialty media A & B was replaced in respective designated wells with 180 μL Seahorse XF DMEM base media containing glucose, sodium pyruvate. […] OCR was determined (Seahorse XF MitoStress test). Finally, cells were lysed, and protein content was determined. […]
Measurement of Mitochondrial Respiration: Control Fb826 and Patient Fb859 cells were grown in regular DMEM media without adding extra glutamine until 85-90% confluency. […] Oxygen consumption rate (OCR) was determined (Seahorse XF MitoStress test). Finally, cells were lysed, and protein content was determined. […]

[5] = test system: glutaric acidemia II (GA II) fibroblast cell line Fb930; assay: Mitochondrial ROS production using MitoSOX Red; format: cell-based, human; details: FIG. 15D; 600 and 1200 μM, 72 h; preliminary test
From the text: (§1) FIGS. 15A-15D are graphs showing the measurement of mitochondrial reactive oxygen species (ROS) production using MitoSOX Red as Superoxide indicator probe. FIG. 15A is a graph showing control fibroblast cell line FB826 treated with PMA010, PMA011, PMA019, and PMA020. FIG. 15B is a graph showing propionic acidemia (PA) patients' fibroblast cell linc Fb859 treated with PMA010, PMA011, PMA019, and PMA020. FIG. 15C is a graph showing propionic acidemia (PA) patients' fibroblast cells line Fb900 treated with PMA010, PMA011, PMA019, and PMA020. FIG. 15D is a graph comparing ROS production levels in response to treatment with PMA011 in Control fibroblast cell line (FB826), PA fibroblast cell line (Fb900), and glutaric acidemia II (GA II) patient fibroblast cell lines (Fb930, Fb961). Data are the average of readings from 3 replicate wells.
(§2) Measurement of mitochondrial ROS production using MitoSOX Red as superoxide indicator probe: control (Fb826), PA patient (Fb859, Fb900) and GA II patient (Fb930, Fb961) fibroblasts were grown in regular DMEM media containing glucose/pyruvate/L-glutamine until 85-90% confluency. The cells were harvested and seeded at a concentration of 25,000 cells/80 μl (n=3) in cell culture treated black wall 96 well microplate with clear bottom in regular DMEM media containing glucose/pyruvate/L-glutamine and incubated overnight at 37° C. in a 5% CO2 incubator. Following day, the culture media was replaced in designated wells with the following for 72 h: 150 μl regular DMEM (Glucose+10% FBS+sodium pyruvate+L-glutamine+0.5 mM carnitine). 150 μl of Regular DMEM containing experimental compounds (180 and 640 μM) PMA010 or PMA011 or PMA 019 and (640 μM) PMA020 in control and propionic acidemia patient fibroblasts. 150 μl of regular DMEM containing experimental compounds (600 and 1200 μM) PMA011 in Fb930 and (1200 μM) PMA011 in Fb961 GA II patient fibroblast. After 72 h incubation the wells were washed twice with 150 μL of Seahorse XFDMEM base media and in respective designated wells the following Assay buffer (150 μL of seahorse XFDMEM base media containing glucose, sodium pyruvate and Glutamine) was used along with 5 μM MitoSOX reagent and incubated at 37° C. non-CO2 incubator for 15 minutes protected from light. After 15 minutes incubation the cells were washed twice with 150 μL of seahorse XFDMEM base media and replaced with measurement buffer, which is same as the wash buffer. The fluorescence was monitored with excitation at 520 nm and emission at 580 nm. Finally, cells were lysed, and protein content was determined. Data is normalized to protein concentration and fluorescence is reported as MitoSOX Red (AFU)/mg protein.

[6] = test system: glutaric acidemia II (GA II) fibroblast cell line Fb961; assay: Mitochondrial ROS production using MitoSOX Red; format: cell-based, human; details: FIG. 15D; 1200 μM, 72 h; preliminary test
From the text: as §1, §2

[7] = test system: propionic acidemia (PA) fibroblast cell line Fb900; assay: Mitochondrial ROS production using MitoSOX Red; format: cell-based, human; details: FIG. 15C; 180 and 640 μM, 72 h
From the text: as §1, §2

[8] = test system: PA patients; details: clinical study initiated in 2008; cited from earlier work

In the case of `N[C@H](CO)C(=O)O` [D-serine, reference compound], the “lysine succinylation (green) signal” value [1] is reported as “Restoration of lysine succinylation (green) signal”.

In the case of `O=C(O)C[C@H](O)C(=O)O` [L-malate], the “reduction of propionate level” value [2] is given as 46% and the “reduction of propionyl-CoA levels in the mitochondrial matrix” value [2] is given as 62%.

With `N[C@H](COC(=O)CCCCC(=O)O)C(=O)N[C@@H](Cc1c[nH]cn1)C(=O)O` [PMA007, 6-((R)-2-amino-3-(((S)-1-carboxy-2-(1H-imidazol-4-yl)ethyl)amino)-3-oxopropoxy)-6-oxohexanoic acid] the “lysine succinylation (green) signal” value [1] was “Restoration of lysine succinylation (green) signal”, the “lysine succinylation (green) signal” value [3] was “green color was restored” and the “oxygen consumption parameters compared to individual components D-Serine and D-Histidine” value [4] was “improved”.

With `CC(C(=O)O)C(=O)N[C@H](C)C(=O)N[C@H](Cc1c[nH]cn1)C(=O)O` (stereo partly drawn) [PMA011, 3-(((R)-1-(((R)-1-carboxy-2-(1H-imidazol-4-yl)ethyl)amino)-1-oxopropan-2-yl)amino)-2-methyl-3-oxopropanoic acid] the “lysine succinylation (green staining) compared to untreated cells” value [1] was “obvious increase in the green staining”, the “ROS detected (MitoSOX Red) compared to no treatment” value [5] was “significant decrease in ROS” and the “ROS detected (MitoSOX Red) compared to no treatment” value [6] was “significant decrease in ROS”. The “ROS detected (MitoSOX Red)” value [7] was “similarly effective”.

In the case of `O=C(O)CCCCC(=O)O` [adipic acid, reference compound], the “lysine succinylation (green staining) compared to untreated cells” value [1] is reported as “obvious increase in the green staining”.

In the case of `O=C(O)CC(O)(CC(=O)O)C(=O)O` [citrate], the “clinical benefit of supplementation” value [8] is given as “can be beneficial in some cases”.

In the case of `CC(C(=O)O)C(=O)O` [methylmalonic acid], the “lysine succinylation (green staining) compared to untreated cells” value [1] is reported as “obvious increase in the green staining”.

In the case of `O=C(O)CCC(=O)O` [succinic acid, reference compound], the “lysine succinylation (green staining) compared to untreated cells” value [1] is reported as “obvious increase in the green staining”.
